Source: US20060067916A1, “Sperm cell process system” (XY, Inc., priority 2002, published 2006)

Test system: stallion sperm cells
Assay: Motility of Hoechst-stained stallion sperm diluted in KMT with or without stimulant (Example 5)
Type: cell-based
Design: Motility 3h: unit not given here
Conditions: for Motility 3h / Progressive 3h: Motility Stimulants, 2 mM caffeine or 2.5 mM NaPyruvate in KMT; for Motility 3h with stimulant / Progressive 3h with stimulant: in % (unit assumed)
Protocol: Sperm cells in ejaculates from three stallions were initially evaluated for volume, concentration, and motility. The remaining portion of each ejaculate was extended in KMT to 25×10^6 sperm/mL and stored at RT for 18 hr. The stored ejaculates were pelleted by centrifugation at 600 g for 10 min. Pelleted sperm cells were resuspended in KMT with Hoechst to generate sperm samples of 400×10^6 sperm/mL,12.4 μl Hoechst, adjusted to either 7.1 pH or 7.9 pH, and then incubated at 34° C. for either 30 min or 60 min. Stained sperm cell samples were extended with either 1 mL KMT with 1.5 μl/mL 5% red food dye; 1 mL KMT with 2.0 μl/mL 5% red food dye; 1 mL KMT with 2.5 μl/mL 5% red food dye; or 1 mL KMT with 3.0 μl/mL […] red food dye. Sperm cell samples were then evaluated for % dead and resolution by flow cytometry analysis, and motility was evaluated by further diluting treated samples in either 140 μl KMT: 20 μl sperm cells; 140 μl KMT 2 mM caffeine: 20 μl sperm cells; 140 μl KMT, 2.5 mM NaPyruvate: 20 μl sperm cells.

[1] = stain time 30 min (12 samples only)
[2] = stain time 60 min (12 samples only)

`Cn1c(=O)c2c(ncn2C)n(C)c1=O` [Caffeine, caffeine] was tested. Which “Motility 3h” value did it give?
The value was 67.71.

What about the “Progressive 3h” value of the same molecule?
The value was 66.56.

What about the “Effect of stimulant on sperm cell motility (FIG. 5)” value (about 2 mM) of the same molecule?
The value was “stimulate motility”.

What about the “Motility 3h with stimulant” value (food coloring 1.5 μl/mL) of the same molecule?
The value was 66.67.

And the “Progressive 3h with stimulant” value (food coloring 1.5 μl/mL)?
The value was 65.42.

What about the “Motility 3h with stimulant” value (food coloring 2 μl/mL) of the same molecule?
Its value is 68.33.

What about the “Progressive 3h with stimulant” value (food coloring 2 μl/mL) of the same molecule?
Its value is 67.5.

And the “Motility 3h with stimulant” value (food coloring 2.5 μl/mL)?
Its value is 68.75.

What about the “Progressive 3h with stimulant” value (food coloring 2.5 μl/mL) of the same molecule?
The value was 67.92.

What about the “Motility 3h with stimulant” value (food coloring 3 μl/mL) of the same molecule?
Its value is 67.08.

What about the “Progressive 3h with stimulant” value (food coloring 3 μl/mL) of the same molecule?
Its value is 65.42.

And the “Motility 3h with stimulant” value (pH 7.1, stain time 30 min)?
Its value is 66.67.

And the “Progressive 3h with stimulant” value (pH 7.1, stain time 30 min)?
Its value is 65.

And the “Motility 3h with stimulant” value (pH 7.1, stain time 60 min)?
Its value is 70.

And the “Progressive 3h with stimulant” value (pH 7.1, stain time 60 min)?
The value was 70.

And the “Motility 3h with stimulant” value (pH 7.9, stain time 30 min)?
Its value is 66.67.

And the “Progressive 3h with stimulant” value (pH 7.9, stain time 30 min)?
Its value is 65.

What about the “Motility 3h with stimulant” value (pH 7.9, stain time 60 min) of the same molecule?
Its value is 67.5.

And the “Progressive 3h with stimulant” value (pH 7.9, stain time 60 min)?
The value was 65.83.

And the “Motility 3h with stimulant” value (stain pH 7.1)?
The value was 68.54.

And the “Progressive 3h with stimulant” value (stain pH 7.1)?
Its value is 67.5.

And the “Motility 3h with stimulant” value (stain pH 7.9)?
The value was 66.88.

What about the “Progressive 3h with stimulant” value (stain pH 7.9) of the same molecule?
Its value is 65.63.

And the “Motility 3h with stimulant” value [1]?
Its value is 66.67.

What about the “Progressive 3h with stimulant” value [1] of the same molecule?
Its value is 65.

And the “Motility 3h with stimulant” value [2]?
Its value is 68.75.

And the “Progressive 3h with stimulant” value [2]?
The value was 67.92.

What about the “Motility 3h with stimulant” value (stallion Gunsmoke) of the same molecule?
Its value is 66.25.

And the “Progressive 3h with stimulant” value (stallion Gunsmoke)?
The value was 63.13.

And the “Motility 3h with stimulant” value (stallion Rowdy)?
Its value is 67.5.

And the “Progressive 3h with stimulant” value (stallion Rowdy)?
The value was 67.5.

What about the “Motility 3h with stimulant” value (stallion Sylekt) of the same molecule?
The value was 69.38.

And the “Progressive 3h with stimulant” value (stallion Sylekt)?
Its value is 69.06.

How did the “Motility 3h” value turn out when `CC(=O)C(=O)O` [Pyruvate, NaPyruvate] was run?
Its value is 65.1.

And the “Progressive 3h” value?
The value was 62.29.

What about the “Motility 3h with stimulant” value (food coloring 1.5 μl/mL) of the same molecule?
Its value is 64.58.

And the “Progressive 3h with stimulant” value (food coloring 1.5 μl/mL)?
The value was 62.08.

What about the “Motility 3h with stimulant” value (food coloring 2 μl/mL) of the same molecule?
Its value is 65.

And the “Progressive 3h with stimulant” value (food coloring 2 μl/mL)?
The value was 60.83.

And the “Motility 3h with stimulant” value (food coloring 2.5 μl/mL)?
The value was 65.83.

What about the “Progressive 3h with stimulant” value (food coloring 2.5 μl/mL) of the same molecule?
The value was 64.58.

And the “Motility 3h with stimulant” value (food coloring 3 μl/mL)?
The value was 65.

And the “Progressive 3h with stimulant” value (food coloring 3 μl/mL)?
The value was 61.67.

And the “Motility 3h with stimulant” value (pH 7.1, stain time 30 min)?
The value was 64.17.

And the “Progressive 3h with stimulant” value (pH 7.1, stain time 30 min)?
Its value is 60.83.

And the “Motility 3h with stimulant” value (pH 7.1, stain time 60 min)?
The value was 67.5.

And the “Progressive 3h with stimulant” value (pH 7.1, stain time 60 min)?
The value was 66.67.

And the “Motility 3h with stimulant” value (pH 7.9, stain time 30 min)?
Its value is 65.

And the “Progressive 3h with stimulant” value (pH 7.9, stain time 30 min)?
The value was 60.

What about the “Motility 3h with stimulant” value (pH 7.9, stain time 60 min) of the same molecule?
Its value is 64.17.

And the “Progressive 3h with stimulant” value (pH 7.9, stain time 60 min)?
The value was 62.5.

What about the “Motility 3h with stimulant” value (stain pH 7.1) of the same molecule?
The value was 65.83.

And the “Progressive 3h with stimulant” value (stain pH 7.1)?
Its value is 63.13.

And the “Motility 3h with stimulant” value (stain pH 7.9)?
The value was 64.38.

What about the “Progressive 3h with stimulant” value (stain pH 7.9) of the same molecule?
Its value is 61.46.

What about the “Motility 3h with stimulant” value [1] of the same molecule?
The value was 64.58.

What about the “Progressive 3h with stimulant” value [1] of the same molecule?
The value was 60.42.

And the “Motility 3h with stimulant” value [2]?
The value was 65.83.

What about the “Progressive 3h with stimulant” value [2] of the same molecule?
The value was 64.58.

What about the “Motility 3h with stimulant” value (stallion Gunsmoke) of the same molecule?
The value was 62.19.

And the “Progressive 3h with stimulant” value (stallion Gunsmoke)?
Its value is 56.56.

And the “Motility 3h with stimulant” value (stallion Rowdy)?
The value was 67.19.

And the “Progressive 3h with stimulant” value (stallion Rowdy)?
Its value is 67.19.

And the “Motility 3h with stimulant” value (stallion Sylekt)?
The value was 65.94.

What about the “Progressive 3h with stimulant” value (stallion Sylekt) of the same molecule?
The value was 63.13.
